According to patent EP0791056B1, “LIPID-CLEAVAGE ENZYME COMPLEX” (priority 1994, dated 1996):
Several values for one entry are separate records, joined by “and”; a condition that tells them apart may be missing. Equal values may be shown once.

Legend:
[1] = tested on: LCE (Lipid-Cleavage-Enzyme); test: Enzymatic cleavage of AZT-DMDOPE, detection of cleavage products by thin-layer chromatography; format: biochemical; conditions: 10 mg AZT-DMDOPE in 0,1 M Tris, 15 h + 6 h at 37 °C
Experimental: (§1) 10 mg (3'-Desoxy-3'-azidothymidin)-5'-phosphorsäure-(3-dodecyl-mercapto-2-decyl-oxy)-propylester (AZT-DMDOPE) werden in 0,5 ml 0,1 M Tris-Pufferlösung suspendiert und nach Zugabe des Enzyms (0,5 mg bei Phosphodiesterase und 0,1 mg bei Phospholipase/Nuclease) 15 Stunden bei 37 °C inkubiert. Anschließend wird die Lösung dünnschichtchromatographisch untersucht. Nach Zugabe von 5 Tropfen gesättigter NaHCO3-Lösung wurde weitere 6 Stunden bei 37 °C inkubiert und anschließend die Lösung dünnschichtchromatographisch untersucht.
(§2) Durch Dünnschichtchromatographie mit verschiedenen Elutionsmitteln wurde die Lösung hinsichtlich der Bildung der möglichen Spaltprodukte (AZT, AZT-monophosphat, DMDOP und Lipidmonophosphat) untersucht.
(§3) • a) Phospholipase C aus Bacillus cereus, 2000 U/0,5 ml, Boehringer Mannheim GmbH • b) Phospholipase D, Typ I, aus Kohl, 150 - 300 U/mg, Sigma • c) Phosphodiesterase aus Kalbsmilz, 2 U/mg, Boehringer Mannheim GmbH • d) Phosphodiesterase aus Schlangengift, Boehringer Mannheim GmbH • e) Nuclease aus Staphylococcus aureus, 15 000 U/mg, Boehringer Mannheim GmbH • f) LCE (Lipid-Cleavage-Enzyme)

[2] = biological target: T1, Nuclease aus Staphylococcus aureus (Staphylococcus aureus, UniProt P00644); test: as above; format: biochemical; conditions: 10 mg AZT-DMDOPE in 0,1 M Tris, 0,1 mg enzyme, 15 h + 6 h at 37 °C
T1 construct: purchased Boehringer Mannheim GmbH
Experimental: as §1, §2, §3

[3] = biological target: T2, Phospholipase C aus Bacillus cereus (Bacillus cereus, UniProt P09598); test: as above; format: biochemical; conditions: 10 mg AZT-DMDOPE in 0,1 M Tris, 0,1 mg enzyme, 15 h + 6 h at 37 °C
T2 construct: purchased Boehringer Mannheim GmbH
T2 sequence (P09598 39-283 limits assumed): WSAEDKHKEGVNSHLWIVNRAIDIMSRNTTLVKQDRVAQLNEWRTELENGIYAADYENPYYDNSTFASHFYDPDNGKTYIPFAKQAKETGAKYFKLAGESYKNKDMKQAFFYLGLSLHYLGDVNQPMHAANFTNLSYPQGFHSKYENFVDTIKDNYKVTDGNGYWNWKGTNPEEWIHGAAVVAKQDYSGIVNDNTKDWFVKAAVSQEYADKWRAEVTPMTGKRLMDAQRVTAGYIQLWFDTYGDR
Experimental: as §1, §2, §3

[4] = tested on: Phospholipase D, Typ I, aus Kohl; test: as above; format: biochemical; conditions: 10 mg AZT-DMDOPE in 0,1 M Tris, 0,1 mg enzyme, 15 h + 6 h at 37 °C; at the height of the lipid phosphate
Experimental: as §1, §2, §3

[5] = tested on: Phosphodiesterase aus Kalbsmilz; test: as above; format: biochemical; conditions: 10 mg AZT-DMDOPE in 0,1 M Tris, 0,5 mg enzyme, 15 h + 6 h at 37 °C
Experimental: as §1, §2, §3

LCE = LCE assay: cleavage of [14C]-AZT-DMDOPE/AZT-DMDOPE to DMDOP by fractions of human blood cells; format: biochemical; conditions: for Spezifische Aktivität: n = 4; for spezifische LCE-Aktivität / AZT-DMDOPE-spaltende Aktivität (spezifische Aktivität des LCE): n = 6; for Km / vmax: membrane fraction 0.068 mg/Ansatz
Experimental: Das Pipettierschema ist in der folgenden Tabelle angegeben. Tabelle
Zur Untersuchung der enzymatischen Spaltung in Abhängigkeit von der Substratkonzentration wurde eine Substratstammlösung von 0.98 nmol [^14C]-AZT-DMDOPE und 0.7 nmol AZT-DMDOPE/80 µl Aqua bidest. im LCE-Assay angesetzt. Die verschiedenen Substratkonzentrationen im LCE-Assay wurden durch kontinuierliche Verdopplung bzw. Halbierung des Volumens an Substratlösung eingestellt. Die Ansätze wurden in Glasröhrchen (5 ml) vorgelegt und durch Zugabe der Substratlösung gestartet. Die Inkubation wurde bei 37 °C im Wasserbad unter leichtem Schütteln durchgeführt.
Die Reaktionsansätze des LCE-Assays wurden nach entsprechender Inkubationszeit dem Wasserbad entnommen, und die Reaktion durch Zugabe von 750 µl 2-Propanol gestoppt. Nach gründlicher Durchmischung wurden die Ansätze anschließend mit 700 µl auf Raumtemperatur erwärmtem n-Heptan versetzt. Die Ansätze wurden erneut für 30 sec gut gemischt und zur Beschleunigung der Phasentrennung in der Minifuge T bei 3200 rpm für 15 min bei Raumtemperatur zentrifugiert. Anschließend wurden 500 µl der oberen Phase (n-Heptan) entnommen und in neue Glasröhrchen (5 ml) mit 10 mg Kieselgel 60 H und 200 µl n-Heptan überführt. Die Ansätze wurden für 30 sec gut durchmischt und zur Sedimentation des Kieselgels für 10 min unter oben genannten Bedingungen zentrifugiert. Vom Überstand wurden anschließend 500 µl entnommen und mit 3 ml Szintillationsflüssigkeit versetzt. Die Messung der Radioaktivität erfolgte für 4 min im Flüssigkeits-Szintillations-Analysator. Zur Bestimmung des Absolutwertes an Radioaktivität wurden 200 µl der Substratlösung mit 3 ml Szintillationsflüssigkeit versetzt und unter gleichen Bedingungen im Flüssigkeits-Szintillations-Analysator gemessen.
Für diese Untersuchungen ist ein Enzym-Assay etabliert, in dem AZT-DMDOPE und [^14C]-AZT-DMDOPE als Substrat eingesetzt wurde (Beispiel 6). […] Bei substratabhängigen Umsetzungen wurde eine Stammlösung von 0.98 nmol [^14C]-AZT-DMDOPE und 0.7 nmol AZT-DMDOPE /80 µl eingesetzt. Die verschiedenen Substratkonzentrationen wurden anschließend durch kontinuierliche Verdopplung bzw. Halbierung des Volumens an Substratlösung eingestellt.
Die Quantifizierung der enzymatischen Spaltung von AZT-DMDOPE wurde durch eine zweistufge Extraktion des Metaboliten DMDOP mit n-Heptan und anschließender Adsorption von Resten des Substrates AZT-DMDOPE an Kieselgel 60 H durchgeführt. Hierbei wurden die Reaktionsansätze mit 2-Propanol und n-Heptan versetzt. wobei sich das im Vergleich zum Substrat unpolare DMDOP in der n-Heptan-Phase anreichert. Die n-Heptan-Phase wurde dann mit Kieselgel 60 H versetzt, wobei Reste des Substrates AZT-DMDOPE adsorbiert werden. Die n-Heptan-Phase wurde anschließend durch Zentrifugation vom Kieselgel separiert, in 3 ml Aqua luma überführt und die in ihr enthaltene Menge an radioaktiv markiertem DMDOP im Flüssigkeits-Szintillations-Analysator über einen Zeitraum von 5 min bestimmt. Aus diesen Ergebnissen konnte die prozentuale Umsetzung des Substrates AZT-DMDOPE zu DMDOP und die spezifische Aktivität des LCE errechnet werden. Als spezifische Aktivität wurde hierbei die Menge an DMDOP bezeichnet die pro 1 mg Protein der eingesetzten Zellpräparationen pro Minute gebildet wurde.
Nach Bestimmung der Proteinkonzentration in Zellhomogenaten, Zytosol- und Membranfraktionen mit Hilfe des Bicinchoninsäure(BCS)-Tests wurden 0.025 - 0.20 mg Protein/Ansatz eingesetzt.
Zur Isolierung der Plasmamembranen wurden 2 ml einer Zellsuspension stimulierter humaner PBL mit einer Zelldichte von 2.5 x 10^8 Zellen/ml durch dreimaliges Einfrieren und Auftauen aufgeschlossen und durch Zentrifugation im Percoll-Dichtegradienten fraktioniert.

[6] = tested on: nichtstimulierten humanen PBL; test: Intracellular concentrations of AZT and AZT nucleotides (radioimmunoassay) in non-stimulated human PBL; format: in vitro ADME
Excerpt: AZT wurden humane PBL aus "Buffy coat" isoliert.

[7] = humane Monozyten/Makrophagen (stimulierte Monozyten), 37 °C, 2 h
[8] = nichtstimulierte humane PBL, 37 °C, 2 h
[9] = stimulierte humane PBL, 37 °C, 2 h

For `CCCCCCCCCCCCSCC(COP(=O)(O)OC[C@H]1O[C@@H](n2cc(C)c(=O)[nH]c2=O)C[C@@H]1N=[N+]=[N-])OCCCCCCCCCC` (stereo partly drawn) [AZT-DMDOPE, (3'-Desoxy-3'-azidothymidin)-5'-phosphorsäure-(3-dodecyl-mercapto-2-decyloxy)-propylester], the “Fluoreszenzauslöschung DC” value [1] was “positiv”, the “Fluoreszenzauslöschung DC” value [2] was “negativ” and the “Fluoreszenzauslöschung DC” value [3] was “negativ”. For the same compound, the “Fluoreszenzauslöschung DC” value [4] was “schwach”, the “Fluoreszenzauslöschung DC” value [5] was “negativ” and the “höchste spezifische LCE-Aktivität” value (LCE; Fraktion 8 (plasma membrane enriched) of Percoll gradient, stimulierte humane PBL, 0.05 mg protein/Ansatz, 37 °C, 2 h) was 4.40 pmol mg^-1 min^-1 min. The “Spezifische Aktivität” value (LCE; Membranfraktion humaner Monozyten isolated in hypertonic density gradient, linear range) was 3.2 + 0.60 pmol mg^-1 min^-1, the “Spezifische Aktivität” value (LCE; Membranfraktion humaner Monozyten/Makrophagen (stimulated by adherence)) was 8.8 ± 0.26 pmol/mg/min and the “spezifische LCE-Aktivität” value (LCE; Membranfraktion nichtstimulierter humaner PBL, calculated from linear range) was 1.45 ± 0.32 pmol/mg/min. The “spezifische LCE-Aktivität” value (LCE; Membranfraktionen stimulierter humaner PBL, 2 h 37 °C) was 14.23 ± 0.70 pmol/mg/min and 14.23 ± 0.7 pmol/mg/min, the “AZT-DMDOPE-spaltende Aktivität (spezifische Aktivität des LCE)” value (LCE; Zellhomogenate stimulierter humaner PBL, 2 h 37 °C) was 6.48 ± 0.38 pmol/mg/min and the “AZT-DMDOPE-spaltende Aktivität (spezifische Aktivität des LCE)” value (LCE; Zytosolfraktionen stimulierter humaner PBL, 2 h 37 °C) was 1.65 ± 0.40 pmol/mg/min. For the same compound, the “spezifische Aktivitäten” value (LCE; all further fractions of Percoll gradient, stimulierte humane PBL, 0.05 mg protein/Ansatz, 37 °C, 2 h) was 1.10 to 1.90 pmol/mg/min, the Km (LCE; humane Monozyten, 37 °C, 2 h) was 12.1 ± 4.13 µM and the vmax (LCE; humane Monozyten, 37 °C, 2 h) was 1.61 ± 0.37 pmol/mg/min. It also gave a Km (LCE; [7]) of 4.63 ± 0.45 µM, a vmax (LCE; [7]) of 9.09 ± 0.44 pmol/mg/min and a Km (LCE; [8]) of 5.51 ± 0.99 µM. The vmax (LCE; [8]) was 2.03 ± 0.19 pmol/mg/min, the Km (LCE; [9]) was 2.26 ± 0.16 µM and the vmax (LCE; [9]) was 15.29 ± 0.37 pmol/mg/min. For the same compound, the “maximale intrazelluläre Konzentrationen an AZT und AZT-Nukleotiden” value ([6]; 1 µg AZT-DMDOPE/ml) was 0.62 ng/10^6 Zellen, the “maximale intrazelluläre Konzentrationen an AZT und AZT-Nukleotiden” value ([6]; 10 µg AZT-DMDOPE/ml) was 4.74 ng/10^6 Zellen and the “intrazelluläre Konzentrationen an AZT und AZT-Nukleotiden im Vergleich zur äquipotenten Konzentration an AZT” value ([6]; whole incubation time) was “größer”.
